According to patent US20120022143A1, “RNA Interference Mediated Inhibition of the Thymic Stromal Lymphopoietin (TSLP) Gene Expression Using Short Interfering Nucliec Acid (siNA)” (Merck Sharp & Dohme Corp, priority 2009, published 2012):
[invAb] = inverted abasic unit; d = 2'-deoxy (DNA); m = 2'-O-methyl; r = 2'-OH (RNA); f = 2'-fluoro

Assays:
mTSLP mRNA = experiment: Initial screening: mouse TSLP mRNA knock-down by RT-PCR (Taqman) after RNAiMax transfection of NIH 3T3 cells; format: cell-based; conditions: 10 nM siNA, 24 hrs post-transfection, mean ± s.d., summary from 2 screens
Procedure: (§1) All cells were obtained from ATCC (Manassas, Va.) unless otherwise indicated. Cells were grown and transfected under standard conditions, which are detailed below for each cell line.
NIH 3T3 (murine; ATCC cat#CRL-1658): Cells were cultured at 37° C. in the presence of 5% CO2 and grown in Dulbecco's modified Eagle's medium (DMEM) with 4 mM L-glutamine adjusted to contain 1.5 g/L sodium bicarbonate and 4.5 g/L glucose and supplemented with fetal bovine serum at a final concentration of 10% and 100 μg/mL of streptomycin and 100 U/mL penicillin.
(§2) All transfections were performed using RNAiMax (Invitrogen Cat# 13778-150) as per the manufacturer's instructions.
(§3) Both human and murine cell lines were transfected in the similar fashion. Cells were plated in all wells of a tissue-culture treated, 96-well plate at a final count of 5,000 cells/well in […], of appropriate culture media. Cells were cultured for 24 hours after plating at 37° C. in the presence of 5% CO2.
(§4) After 24 hours, complexes containing siNA and RNAiMax were created as follows: A solution of RNAiMax diluted 33-fold in OPTI-MEM was prepared. In parallel, solutions of the siNAs for testing were prepared to a final concentration of 120 nM in OPTI-MEM. After incubation of RNAiMax/OPTI-MEM solution at room temperature for 5 min, an equal volume of the siNA solution and the RNAiMax solution were added together for each of the siNAs.
(§5) This solution was incubated at room temperature for 20 minutes. After incubation, 20 uL of the solution was added to each of the relevant wells.
(§6) The final concentration of siNA in each well was 10 nM and the final volume of RNAiMax in each well was 0.3 ul.
(§7) The time of incubation with the RNAiMax-siNA complexes was 24 hours, unless otherwise indicated. There was no change in media between the transfection and harvesting of the cells unless otherwise indicated.
(§8) RNA was extracted from a 96-well plate using the TaqMan® Gene Expression Cells-to-CT™ Kit (Cat# 4399002) with a modified protocol. Briefly, a 60 uL (1 plate) or 110 uL (2 plates) of the Lysis Solution with DNase I was dispensed into each well of the Lysis Buffer Plate (twin.tec full skirt plate). The lysis buffer and stop plates were stored at 4° C. until the cells were washed.
(§9) The plate was spun at 1100 rpm for 5 minutes. The culture medium was aspirated and discarded from the wells of the culture plate. The lysis was performed automatically using a BioMek FX instrument and method. After the Biomek method was completed, the lysis plate was incubated for 2 min. at room temperature. The lysis plate can be stored for 2 hours at 4° C., or at −20° C. or −80° C. for two months.
(§10) Each well of the reverse transcription plate required 10 uL of 2× reverse transcriptase Buffer, luL of 20× reverse transcription enzyme and 2 uL of nuclease-free water. The reverse transcription master mix was prepared by mixing 2× reverse transcription buffer, 20× reverse transcription enzyme mix, and nuclease-free water. 13 uL of the reverse transcription master mix was dispensed into each well of the reverse transcription plate (semi-skirted). A separate reverse transcription plate was prepared for each cell plate. The plate was loaded onto a Biomek NX or Biomek FX Dual-96 and the Biomek method was run. The program is programmed to automatically added 7 uL of lysate from the cell lysis procedure described above into each well of the reverse transcription plate. The plate is sealed and spun on a centrifuge (1000 rpm for 30 seconds) to settle the contents to the bottom of the reverse transcription plate. The plate is placed in a thermocycler at 37° C. for 60 min, 95° C. for 5 min, and 4° C. until the plate is removed from the thermocycler. Upon removal, if not used immediately, the plate was frozen at −20° C.
A series of probes and primers were used to detect the various mRNA transcripts of the genes of TSLP, IL-8 and GAPDH in human cell lines. […]

TSLP mRNA = experiment: Initial screening: TSLP mRNA knock-down by RT-PCR (Taqman) after RNAiMax transfection of NHLF cells; format: cell-based; conditions: 10 nM siNA, human NHLF cells, 24 hrs post-transfection, relative to non-targeting control, normalized to GAPDH; mean ± s.d. from 2 experiments
Procedure: as §1
NHLF (human; Lonza cat# CC-2512): Cells were cultured at 37° C. in the presence of 5% CO2 and grown Fibroblast Basal Medium (Lonza cat# CC-3β2) supplemented growth factors (provided with the kit) and 100 μg/mL of streptomycin and 100 U/mL penicillin.
as §2, §3, §4, §5, §6, §7, §8, §9, §10
A series of probes and primers were used to detect the various mRNA transcripts of the genes of TSLP, IL-8 and GAPDH in human cell lines. All the Taqman probes and primers for the experiments here-in described were supplied as pre-validated sets by Applied Biosystems, Inc. (see Table 2). […]

Substance	% KD mTSLP NIH3T3 (mTSLP mRNA) [%]	% KD TSLP (TSLP mRNA)
25452-DC: siNA duplex: sense B uuGuGAAcAcuuuuGAAAA TTB (SEQ ID NO: 87), antisense UUUucAAAAGuGuucAcAAUU (SEQ ID NO: 88) (sense UUGUGAACACUUUUGAAAATT; antisense UUUUCAAAAGUGUUCACAAUU; sense: DNA at AGT, 2'-fluoro at CU, [invAb] at 5' end, 3' end, backbone not given here; antisense: sugars from the 5' end rrrffmmmmmfmfffmfmmmm, backbone not given here)	36.4 ± 7.9	86 ± 3%
25444-DC: siNA duplex: sense B GuGucAcAAuuAcAAGGAu TTB (SEQ ID NO: 71), antisense AUCcuuGuAAuuGuGAcAcUU (SEQ ID NO: 72) (sense GUGUCACAAUUACAAGGAUTT; antisense AUCCUUGUAAUUGUGACACUU; sense: DNA at AGT, 2'-fluoro at CU, [invAb] at 5' end, 3' end, backbone not given here; antisense: sugars from the 5' end rrrfffmfmmffmfmmfmfmm, backbone not given here)	19.5 ± 19	80 ± 5.3%
25463-DC: siNA duplex: sense B cGAGuAuuAuAcucucAAu TTB (SEQ ID NO: 109), antisense AUUGAGAGuAuAAuAcucGUU (SEQ ID NO: 110) (sense CGAGUAUUAUACUCUCAAUTT; antisense AUUGAGAGUAUAAUACUCGUU; sense: DNA at AGT, 2'-fluoro at CU, [invAb] at 5' end, 3' end, backbone not given here; antisense: sugars from the 5' end rrrmmmmmfmfmmfmfffmmm, backbone not given here)	41.5 ± 1.4	19 ± 33.3%
25448-DC: siNA duplex: sense B uGuGAAcAcuuuuGAAAAu TTB (SEQ ID NO: 79), antisense AUUuucAAAAGuGuucAcAUU (SEQ ID NO: 80) (sense UGUGAACACUUUUGAAAAUTT; antisense AUUUUCAAAAGUGUUCACAUU; sense: DNA at AGT, 2'-fluoro at CU, [invAb] at 5' end, 3' end, backbone not given here; antisense: sugars from the 5' end rrrfffmmmmmfmfffmfmmm, backbone not given here)	45.1 ± 6.3	80 ± 7%
25433-DC: siNA duplex: sense B cGcucGccAAAGAAAuGuu TTB (SEQ ID NO: 49), antisense AACAuuucuuuGGcGAGcGUU (SEQ ID NO: 50) (sense CGCUCGCCAAAGAAAUGUUTT; antisense AACAUUUCUUUGGCGAGCGUU; sense: DNA at AGT, 2'-fluoro at CU, [invAb] at 5' end, 3' end, backbone not given here; antisense: sugars from the 5' end rrrmfffffffmmfmmmfmmm, backbone not given here)	7.5 ± 3.3	36 ± 25^ %
25437-DC: siNA duplex: sense B cAGGGAGAcuccAAcuuAA TTB (SEQ ID NO: 57), antisense UUAAGuuGGAGucucccuGUU (SEQ ID NO: 58) (sense CAGGGAGACUCCAACUUAATT; antisense UUAAGUUGGAGUCUCCCUGUU; sense: sugars from the 5' end frddddddffffddfffdddd, [invAb] at 5' end, 3' end, backbone not given here; antisense: sugars from the 5' end rrrmmffmmmmfffffffmmm, backbone not given here)	33.8 ± 4.2	−51 ± 36.2%
25432-DC: siNA duplex: sense B cuGAGGAAAAucAGGAcAu TTB (SEQ ID NO: 47), antisense AUGuccuGAuuuuccucAGUU (SEQ ID NO: 48) (sense CUGAGGAAAAUCAGGACAUTT; antisense AUGUCCUGAUUUUCCUCAGUU; sense: DNA at AGT, 2'-fluoro at CU, [invAb] at 5' end, 3' end, backbone not given here; antisense: sugars from the 5' end r3 f4 m2 f8 m4, backbone not given here)	37.1 ± 3.8	47 ± 26.2%
25459-DC: siNA duplex: sense B uGcccAGGcuAcccuGAAA TTB (SEQ ID NO: 101), antisense UUUcAGGGuAGccuGGGcAUU (SEQ ID NO: 102) (sense UGCCCAGGCUACCCUGAAATT; antisense UUUCAGGGUAGCCUGGGCAUU; sense: DNA at AGT, 2'-fluoro at CU, [invAb] at 5' end, 3' end, backbone not given here; antisense: sugars from the 5' end rrrfmmmmfmmfffmmmfmmm, backbone not given here)	15.7 ± 1.6	−6 ± 27^ %
25431-DC: siNA duplex: sense B GcuucAGGAuGcAuuGcAA TTB (SEQ ID NO: 45), antisense UUGcAAuGcAuccuGAAGcUU (SEQ ID NO: 46) (sense GCUUCAGGAUGCAUUGCAATT; antisense UUGCAAUGCAUCCUGAAGCUU; sense: DNA at AGT, 2'-fluoro at CU, [invAb] at 5' end, 3' end, backbone not given here; antisense: sugars from the 5' end rrrfmmfmfmffffmmmmfmm, backbone not given here)	−10.8 ± 14.2	−11 ± 39.5%
25458-DC: siNA duplex: sense B GuAGAAAAAAAAAuuAAAA TTB (SEQ ID NO: 99), antisense UUUuAAuuuuuuuuucuAcUU (SEQ ID NO: 100) (sense GUAGAAAAAAAAAUUAAAATT; antisense UUUUAAUUUUUUUUUCUACUU; sense: sugars from the 5' end d1 f1 d11 f2 d6, [invAb] at 5' end, 3' end, backbone not given here; antisense: sugars from the 5' end rrrfmmfffffffffffmfmm, backbone not given here)	21.6 ± 0.5	45 ± 9.9%
25445-DC: siNA duplex: sense B GGGAuAGAAAAGuAGGuAA TTB (SEQ ID NO: 73), antisense UUAccuAcuuuucuAucccUU (SEQ ID NO: 74) (sense GGGAUAGAAAAGUAGGUAATT; antisense UUACCUACUUUUCUAUCCCUU; sense: DNA at AGT, 2'-fluoro at U, [invAb] at 5' end, 3' end, backbone not given here; antisense: sugars from the 5' end rrrfffmfffffffmffffmm, backbone not given here)	36.1 ± 1.6	−66 ± 42.7%
